The target in test [1] is T1, full length Aurora-A (AA 1-403) (Homo sapiens, UniProt O14965).
T1 construct: full length Aurora-A (AA 1-403)
T1 sequence (O14965 1-403): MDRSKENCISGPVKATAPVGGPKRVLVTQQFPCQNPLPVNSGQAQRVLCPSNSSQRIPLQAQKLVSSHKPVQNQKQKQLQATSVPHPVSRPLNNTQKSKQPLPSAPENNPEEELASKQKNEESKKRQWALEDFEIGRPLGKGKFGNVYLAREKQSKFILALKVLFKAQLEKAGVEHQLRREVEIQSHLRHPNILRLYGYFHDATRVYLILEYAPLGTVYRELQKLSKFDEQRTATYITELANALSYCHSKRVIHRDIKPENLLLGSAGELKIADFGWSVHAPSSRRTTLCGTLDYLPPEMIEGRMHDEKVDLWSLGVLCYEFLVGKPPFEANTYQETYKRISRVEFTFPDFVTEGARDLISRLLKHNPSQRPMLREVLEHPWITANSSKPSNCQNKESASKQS
Put plainly: Aurora-A inhibition assay, standard coupled enzyme system. Type of test: biochemical. The conditions noted are these: average Ki if more than one value determined. As to the method:
Compounds were screened for their ability to inhibit full length Aurora-A (AA 1-403) activity using a standard coupled enzyme system (Fox et al., Protein Sci. 7, pp. 2249 (1998)). Reactions were carried out in a solution containing 100 mM HEPES (pH 7.5), 10 mM MgCl2, 25 mM NaCl, 300 μM NADH, 1 mM DTT and 3% DMSO. Final substrate concentrations in the assay were 200 μM ATP (Sigma Chemicals, St Louis, Mo.) and 800 μM peptide (LRRASLG, American Peptide, Sunnyvale, Calif.). Reactions were carried out at 30° C. and 35 nM Aurora-A. Final concentrations of the components of the coupled enzyme system were 2.5 mM phosphoenolpyruvate, 200 μM NADH, 60 μg/ml pyruvate kinase and 20 μg/ml lactate dehydrogenase.
An assay stock buffer solution was prepared containing all of the reagents listed above with the exception of ATP and the test compound of interest. The assay stock buffer solution (60 μl) was incubated in a 96 well plate with 2 μl of the test compound of interest at final concentrations spanning 0.002 μM to 30 μM at 30° C. for 10 min. Typically, a 12 point titration was conducted by preparing serial dilutions (from 1 mM compound stocks) with DMSO of the test compounds in daughter plates. The reaction was initiated by the addition of 5 μl of ATP (final concentration 200 μM). Rates of reaction were obtained using a Molecular Devices Spectramax plate reader (Sunnyvale, Calif.) over 10 min at 30° C. The Ki values were determined from the rate data as a function of inhibitor concentration using computerized nonlinear regression (Prism 3.0, Graphpad Software, San Diego, Calif.). Aurora-C activity was screened in a similar manner using Aurora-C protein. Aurora-B activity was screened using a radioactive assay, such as described in Examples 1 and 2, but using Aurora-B protein.

For the next test, the target named is T2, ROCK I (AA 6-553) (Homo sapiens, UniProt Q13464).
T2 construct: ROCK I (AA 6-553)
T2 sequence (Q13464 6-553, species assumed): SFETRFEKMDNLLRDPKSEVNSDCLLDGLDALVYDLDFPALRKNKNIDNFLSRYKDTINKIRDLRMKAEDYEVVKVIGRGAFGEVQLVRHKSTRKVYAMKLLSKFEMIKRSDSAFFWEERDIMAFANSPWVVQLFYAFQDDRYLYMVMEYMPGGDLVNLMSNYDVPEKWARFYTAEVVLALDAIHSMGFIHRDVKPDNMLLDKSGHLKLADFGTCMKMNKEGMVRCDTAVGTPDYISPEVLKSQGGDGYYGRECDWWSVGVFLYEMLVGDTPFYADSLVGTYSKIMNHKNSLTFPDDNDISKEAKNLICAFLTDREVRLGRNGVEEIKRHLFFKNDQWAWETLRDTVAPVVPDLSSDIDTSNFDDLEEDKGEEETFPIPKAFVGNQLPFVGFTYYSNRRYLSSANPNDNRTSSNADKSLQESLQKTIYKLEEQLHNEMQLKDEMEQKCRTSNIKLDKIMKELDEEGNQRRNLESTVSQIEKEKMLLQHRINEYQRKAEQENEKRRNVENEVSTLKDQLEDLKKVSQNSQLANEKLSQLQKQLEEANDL
Description: ROCK inhibition assay, standard coupled enzyme system ("Enzyme"). Type of test: biochemical. The settings on record: enzyme-linked assay. As to the method: Compounds were screened for their ability to inhibit ROCK I (AA 6-553) activity using a standard coupled enzyme system (Fox et al. (1998) Protein Sci. 7, 2249). Reactions were carried out in a solution containing 100 mM HEPES (pH 7.5), 10 mM MgCl2, 25 mM NaCl, 2 mM DTT and 1.5% DMSO. Final substrate concentrations in the assay were 45 μM ATP (Sigma Chemicals, St Louis, Mo.) and 200 μM peptide (American Peptide, Sunnyvale, Calif.). Reactions were carried out at 30° C. and 45 nM ROCK L. Final concentrations of the components of the coupled enzyme system were 2.5 mM phosphoenolpyruvate, 350 μM NADH, 30 μg/ml pyruvate kinase and 10 μg/ml lactate dehydrogenase.

pKi: −log10 of the molar value.

For the compound `CC(=O)c1ccc(-c2c[nH]c3ncc(-c4ccccc4)cc23)cc1` [Compound 231], the pKi (in test [1]; on ROCK I (AA 6-553)) was > 6.30 in each case.

For the compound `Fc1cnc(-c2c[nH]c3ncc(Cl)cc23)nc1NC1CCNC1` (stereo not shown) [Compound 344], the pKi (in test [1]; at ROCK I (AA 6-553)) was > 6.30 throughout.

`O=Cc1cc(-c2c[nH]c3ncc(Cl)cc23)nc(N2CCNCC2)c1` [Compound 409]: the pKi (in test [1]; at ROCK I (AA 6-553)) was > 6.30 throughout.

On to `Clc1cnc2[nH]cc(-c3cccc(N4CCNCC4)n3)c2c1` [Compound 267], for which the pKi (in test [1]; on ROCK I (AA 6-553)) was > 6.30 in each case.

In the case of `COC(=O)c1cc(F)c(N[C@@H](C)c2ccc(F)cc2)nc1-c1c[nH]c2ncc(Cl)cc12` [Compound 396], the pKi (usually the Ki on a negative log10 scale, so that one unit is a factor of ten) in test [1] was > 6.30; on ROCK I (AA 6-553), 5.30 to 6.30.

Turning to `COc1ccc(-c2c[nH]c3ncc(-c4ccc(F)cc4)cc23)cc1OC` [Compound 222], the pKi (in test [1]; on ROCK I (AA 6-553)) was > 6.30 throughout.

As for `Fc1cnc(-c2c[nH]c3ncc(Cl)cc23)nc1NCC1CCOC1` (stereo not shown) [Compound 373], the pKi in test [1] is > 6.30; at ROCK I (AA 6-553), 5.30 to 6.30.

With `Clc1cnc2[nH]cc(-c3cccc(Br)n3)c2c1` [Compound 240], the pKi in test [1] is > 6.30; on ROCK I (AA 6-553), 5.30 to 6.30.

For the compound `C[C@H](Nc1nc(-c2c[nH]c3ncc(Cl)cc23)ncc1F)C(=O)OC(C)(C)C` [Compound 351], the figures for the pKi (in test [1]; at ROCK I (AA 6-553)) were > 6.30 and 5.30 to 6.30, respectively.

With `CCNC(=O)[C@H](C)Nc1nc(-c2c[nH]c3ncc(Cl)cc23)ncc1F` [Compound 367], the figures for the pKi (in test [1]; at ROCK I (AA 6-553)) were > 6.30 and 5.30 to 6.30, respectively.

Regarding `C[C@H](Nc1nc(-c2c[nH]c3ncc(Cl)cc23)ncc1F)c1cccc(OCC(=O)O)c1` [Compound 336], the pKi was > 6.30 in test [1] and 5.30 to 6.30 on ROCK I (AA 6-553).

`Fc1cnc(-c2c[nH]c3ncc(Cl)cc23)nc1Nc1ccc(-n2ccnc2)cc1` [Compound 301]: the pKi (in test [1]; at ROCK I (AA 6-553)) was 5.30 to 6.30 throughout.

As for `COCC#Cc1cnc2[nH]cc(-c3ncc(F)c(N[C@@H](C)c4ccc(F)cc4)n3)c2c1` [Compound 384], the negative logarithm of the Ki (pKi) was > 6.30 in test [1] and 5.30 to 6.30 at ROCK I (AA 6-553).

In the case of `CN(C)c1cccc(-c2c[nH]c3ncc(-c4ccccc4)cc23)n1` [Compound 253], the negative logarithm of the Ki (pKi) (in test [1]; on ROCK I (AA 6-553)) was > 6.30 throughout.

On to `O=C(Nc1cccc(-c2c[nH]c3ncc(Cl)cc23)n1)c1ccccc1` [Compound 249], for which the results for the pKi (in test [1]; at ROCK I (AA 6-553)) were > 6.30 and 5.30 to 6.30, respectively.

Take `CS(=O)(=O)Nc1ccc(-c2cnc3[nH]cc(-c4ccc(C(N)=O)cc4)c3c2)cc1` [Compound 255]: the pKi (in test [1]; at ROCK I (AA 6-553)) was > 6.30 in each case.

On to `OCCNc1cccc(-c2c[nH]c3ncc(Cl)cc23)n1` [Compound 270], for which the pKi (in test [1]; on ROCK I (AA 6-553)) was 5.30 to 6.30 each time.

As for `Clc1ccccc1Nc1cccc(-c2c[nH]c3ncc(-c4ccccc4)cc23)n1` [Compound 266], the pKi in test [1] is > 6.30; at ROCK I (AA 6-553), 5.30 to 6.30.

On to `Clc1cnc2[nH]cc(-c3cccc(NCc4ccc(Cl)c(Cl)c4)n3)c2c1` [Compound 251], for which the pKi was > 6.30 in test [1] and 5.30 to 6.30 at ROCK I (AA 6-553).

In the case of `CCCCNC(=O)c1cccc(-c2c[nH]c3ncc(-c4ccccc4)cc23)c1` [Compound 220], the negative logarithm of the Ki (pKi) (in test [1]; at ROCK I (AA 6-553)) was 5.30 to 6.30 in each case.

With `C[C@H](Nc1nc(-c2c[nH]c3ncc(Cl)cc23)ncc1F)C(=O)O` [Compound 360], the pKi (in test [1]; on ROCK I (AA 6-553)) was 5.30 to 6.30 each time.

Consider `CNC(=O)C[C@H](C)Nc1nc(-c2c[nH]c3ncc(Cl)cc23)ncc1F` [Compound 402], for which the pKi (in test [1]; at ROCK I (AA 6-553)) was 5.30 to 6.30 throughout.

Consider `CNc1cccc(-c2c[nH]c3ncc(-c4ccccc4)cc23)n1` [Compound 278], for which the negative logarithm of the Ki (pKi) (in test [1]; on ROCK I (AA 6-553)) was > 6.30 each time.

In the case of `COC(=O)c1cnc2[nH]cc(-c3ncc(F)c(N[C@@H](C)c4ccc(F)cc4)n3)c2c1` [Compound 307], the pKi (in test [1]; on ROCK I (AA 6-553)) was > 6.30 throughout.

As for `CS(=O)(=O)c1ccc(CNc2cccc(-c3c[nH]c4ncc(Cl)cc34)n2)cc1` [Compound 247], the pKi in test [1] was > 6.30; on ROCK I (AA 6-553) it was 5.30 to 6.30.

As to `Fc1cnc(-c2c[nH]c3ncc(Cl)cc23)nc1NCc1ccncc1` [Compound 318], the pKi in test [1] was > 6.30; on ROCK I (AA 6-553) it was 5.30 to 6.30.

Regarding `Fc1ccc(-c2cnc3[nH]cc(-c4ccc(F)cc4)c3c2)cc1` [Compound 223], the negative logarithm of the Ki (pKi) (in test [1]; on ROCK I (AA 6-553)) was 5.30 to 6.30 in each case.

For the compound `CNC(=O)COc1cccc([C@H](C)Nc2nc(-c3c[nH]c4ncc(Cl)cc34)ncc2F)c1` [Compound 376], the results for the negative-log Ki (pKi) (in test [1]; on ROCK I (AA 6-553)) were > 6.30 and 5.30 to 6.30, respectively.

Turning to `NC(=O)c1cccc(-c2c[nH]c3ncc(-c4ccc(F)cc4)cc23)c1` [Compound 228], the pKi (in test [1]; on ROCK I (AA 6-553)) was > 6.30 throughout.

In the case of `CC(C)Oc1cnc(-c2c[nH]c3ncc(Cl)cc23)nc1N[C@@H](C)C(=O)NCC(F)(F)F` [Compound 410], the figures for the pKi (in test [1]; at ROCK I (AA 6-553)) were > 6.30 and 5.30 to 6.30, respectively.

For the compound `C[C@H](Nc1nc(-c2c[nH]c3ncc(Cl)cc23)ncc1F)C(=O)NCCF` [Compound 365], the values for the negative-log Ki (pKi) (in test [1]; on ROCK I (AA 6-553)) were > 6.30 and 5.30 to 6.30, respectively.

For the compound `COc1ccc(-c2c[nH]c3ncc(-c4ccc(F)cc4)cc23)cc1` [Compound 224], the negative logarithm of the Ki (pKi) (in test [1]; on ROCK I (AA 6-553)) was > 6.30 throughout.

In the case of `O=C(c1cccc(-c2c[nH]c3ncc(-c4cc(Cl)cc(Cl)c4)cc23)c1)N1CCOCC1` [Compound 225], the pKi (in test [1]; on ROCK I (AA 6-553)) was 5.30 to 6.30 in each case.

On to `COc1ccc(CNc2cccc(-c3c[nH]c4ncc(Cl)cc34)n2)cc1` [Compound 258], for which the results for the negative-log Ki (pKi) (in test [1]; at ROCK I (AA 6-553)) were > 6.30 and 5.30 to 6.30, respectively.

For `CC(C)(C)OC(=O)N1CCN(c2cccc(-c3c[nH]c4ncc(Cl)cc34)n2)CC1` [Compound 257], the pKi (in test [1]; on ROCK I (AA 6-553)) was 5.30 to 6.30 throughout.

`CC(=O)N1CCN(c2cccc(-c3c[nH]c4ncc(Cl)cc34)n2)CC1` [Compound 276]: the results for the pKi (in test [1]; on ROCK I (AA 6-553)) were > 6.30 and 5.30 to 6.30, respectively.

With `CNC(=O)c1cnc2[nH]cc(-c3ncc(F)c(N[C@@H](C)c4ccc(F)cc4)n3)c2c1` [Compound 309], the pKi (in test [1]; at ROCK I (AA 6-553)) was 5.30 to 6.30 in each case.

With `C[C@H](Nc1nc(-c2c[nH]c3ncc(Cl)cc23)ncc1F)C(=O)NCCS(C)(=O)=O` [Compound 389], the pKi is > 6.30 in test [1] and 5.30 to 6.30 on ROCK I (AA 6-553).

Take `C[C@H](Nc1nc(-c2c[nH]c3ncc(Cl)cc23)ncc1F)c1cccc(OCCCN(C)C)c1` [Compound 377]: the pKi was > 6.30 in test [1] and 5.30 to 6.30 at ROCK I (AA 6-553).

On to `COC(=O)c1cc(F)c(-c2c[nH]c3ncc(Cl)cc23)nc1N[C@@H](C)c1ccc(F)cc1` [Compound 398], for which the pKi in test [1] was > 6.30; at ROCK I (AA 6-553), 5.30 to 6.30.

`CCOc1cnc(-c2c[nH]c3ncc(Cl)cc23)nc1N[C@@H](C)C(=O)NCC(F)(F)F` [Compound 408]: the negative-log Ki (pKi) is > 6.30 in test [1] and 5.30 to 6.30 at ROCK I (AA 6-553).

In the case of `NC(=O)c1ccc(Nc2nc(-c3c[nH]c4ncc(Cl)cc34)ncc2F)cc1` [Compound 295], the pKi in test [1] is > 6.30; at ROCK I (AA 6-553), 5.30 to 6.30.

Consider `C[C@@H](CC(=O)O)Nc1nc(-c2c[nH]c3ncc(Cl)cc23)ncc1F` [Compound 401], for which the pKi in test [1] is > 6.30; on ROCK I (AA 6-553) it was 5.30 to 6.30.

In the case of `Cc1ccc(CNc2cccc(-c3c[nH]c4ncc(-c5ccccc5)cc34)n2)cc1` [Compound 262], the pKi (in test [1]; on ROCK I (AA 6-553)) was 5.30 to 6.30 each time.

These data come from patent US8501446B2 (Vertex Pharmaceuticals Incorporated, priority 2004, dated 2013).
